Data published in PubChem BioAssay AID2060484 (Molecular Pharmacology Branch, DTP, NCI, 2025).

Test system: SUM149PT spheroids with HUVEC/MSC, viability
Assay: Anticancer human tumor SUM149PT cell line growth inhibition [GQUAD];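 note: spheroids exposed to drugs for seven days before readout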;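 for viability, T/C: percent viability relative to DMSO vehicle control taken as 100%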
Conditions: for IC50: curve of first compound; for viability, T/C: stronger effect = lower value
Outline: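 Tumor cells were grown as complex spheroids with HUVEC endothelial cells and mesenchymal stem cells as stroma. G-quadruplex stabilizers were combined with targeted agents over half-log dilutions from near the clinical Cmax, or from 10 microM.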

[1] = second compound 0.0316 µM, first compound 0.0316 µM
[2] = second compound 0.0316 µM, first compound 0.1 µM
[3] = second compound 0.0316 µM, first compound 0.316 µM
[4] = second compound 0.0316 µM, first compound 1 µM
[5] = second compound 0.0316 µM, first compound 3.16 µM
[6] = second compound 0.0316 µM, first compound 10 µM
[7] = second compound 0.1 µM, first compound 0.0316 µM
[8] = second compound 0.1 µM, first compound 0.1 µM
[9] = second compound 0.1 µM, first compound 0.316 µM
[10] = second compound 0.1 µM, first compound 1 µM
[11] = second compound 0.1 µM, first compound 3.16 µM
[12] = second compound 0.1 µM, first compound 10 µM
[13] = second compound 0.316 µM, first compound 0.0316 µM
[14] = second compound 0.316 µM, first compound 0.1 µM
[15] = second compound 0.316 µM, first compound 0.316 µM
[16] = second compound 0.316 µM, first compound 1 µM
[17] = second compound 0.316 µM, first compound 3.16 µM
[18] = second compound 0.316 µM, first compound 10 µM
[19] = second compound 1 µM, first compound 0.0316 µM
[20] = second compound 1 µM, first compound 0.1 µM
[21] = second compound 1 µM, first compound 0.316 µM
[22] = second compound 1 µM, first compound 1 µM
[23] = second compound 1 µM, first compound 3.16 µM
[24] = second compound 1 µM, first compound 10 µM
[25] = second compound 3.16 µM, first compound 0.0316 µM
[26] = second compound 3.16 µM, first compound 0.1 µM
[27] = second compound 3.16 µM, first compound 0.316 µM
[28] = second compound 3.16 µM, first compound 1 µM
[29] = second compound 3.16 µM, first compound 3.16 µM
[30] = second compound 3.16 µM, first compound 10 µM
[31] = second compound 10 µM, first compound 0.0316 µM
[32] = second compound 10 µM, first compound 0.1 µM
[33] = second compound 10 µM, first compound 0.316 µM
[34] = second compound 10 µM, first compound 1 µM
[35] = second compound 10 µM, first compound 3.16 µM
[36] = second compound 10 µM, first compound 10 µM

## CC(=O)O[C@H]1C(=O)[C@@]2(C)[C@H]([C@H](OC(=O)c3ccccc3)[C@]3(O)C[C@H](OC(=O)[C@H](O)[C@@H](NC(=O)c4ccccc4)c4ccccc4)C(C)=C1C3(C)C)[C@]1(OC(C)=O)CO[C@@H]1C[C@@H]2O + Cc1cnc(CNC(=O)c2c(=O)c3ccc(N4CCCN(C)CC4)nc3n3c2sc2ccccc23)cn1
Second compound 0.0316 µM
  IC50: < 31.6 nM
Second compound 0.1 µM
  IC50: < 31.6 nM
Second compound 0.316 µM
  IC50: < 31.6 nM
Second compound 1 µM
  IC50: < 31.6 nM
Second compound 3.16 µM
  IC50: < 31.6 nM
Second compound 10 µM
  IC50: < 31.6 nM
[1]
  viability, T/C: 25.8%
[2]
  viability, T/C: 16.3%
[3]
  viability, T/C: 15.5%
[4]
  viability, T/C: 9.27%
[5]
  viability, T/C: 11.8%
[6]
  viability, T/C: 16.7%
[7]
  viability, T/C: 26.2%
[8]
  viability, T/C: 26.1%
[9]
  viability, T/C: 13.4%
[10]
  viability, T/C: 13.1%
[11]
  viability, T/C: 14.7%
[12]
  viability, T/C: 14.5%
[13]
  viability, T/C: 30.5%
[14]
  viability, T/C: 30.4%
[15]
  viability, T/C: 19%
[16]
  viability, T/C: 14.6%
[17]
  viability, T/C: 14.8%
[18]
  viability, T/C: 19%
[19]
  viability, T/C: 30.9%
[20]
  viability, T/C: 24.8%
[21]
  viability, T/C: 18%
[22]
  viability, T/C: 16.1%
[23]
  viability, T/C: 15.2%
[24]
  viability, T/C: 20.7%
[25]
  viability, T/C: 32.2%
[26]
  viability, T/C: 24.8%
[27]
  viability, T/C: 19.1%
[28]
  viability, T/C: 16.9%
[29]
  viability, T/C: 18%
[30]
  viability, T/C: 19.8%
[31]
  viability, T/C: 0.13%
[32]
  viability, T/C: 0.61%
[33]
  viability, T/C: 1.35%
[34]
  viability, T/C: 0.64%
[35]
  viability, T/C: 1.28%
[36]
  viability, T/C: 1.03%

## COc1cc(C2c3cc4c(cc3C(OC3OC5COC(C)OC5C(O)C3O)C3COC(=O)C23)OCO4)cc(OC)c1O (stereo not given) + Cc1cnc(CNC(=O)c2c(=O)c3ccc(N4CCCN(C)CC4)nc3n3c2sc2ccccc23)cn1
Second compound 0.0316 µM
  IC50: 365 nM
Second compound 0.1 µM
  IC50: 304 nM
Second compound 0.316 µM
  IC50: 125 nM
Second compound 1 µM
  IC50: < 31.6 nM
Second compound 3.16 µM
  IC50: < 31.6 nM
Second compound 10 µM
  IC50: < 31.6 nM
[1]
  viability, T/C: 82.8%
[2]
  viability, T/C: 59.1%
[3]
  viability, T/C: 48.2%
[4]
  viability, T/C: 45.8%
[5]
  viability, T/C: 27.3%
[6]
  viability, T/C: 13.3%
[7]
  viability, T/C: 67.7%
[8]
  viability, T/C: 52.1%
[9]
  viability, T/C: 52.5%
[10]
  viability, T/C: 42%
[11]
  viability, T/C: 24%
[12]
  viability, T/C: 11.5%
[13]
  viability, T/C: 57.8%
[14]
  viability, T/C: 47.4%
[15]
  viability, T/C: 44.5%
[16]
  viability, T/C: 40.1%
[17]
  viability, T/C: 25.6%
[18]
  viability, T/C: 12.4%
[19]
  viability, T/C: 45.7%
[20]
  viability, T/C: 45.9%
[21]
  viability, T/C: 42.2%
[22]
  viability, T/C: 39%
[23]
  viability, T/C: 24.5%
[24]
  viability, T/C: 13.4%
[25]
  viability, T/C: 39.5%
[26]
  viability, T/C: 38.1%
[27]
  viability, T/C: 35.6%
[28]
  viability, T/C: 39.6%
[29]
  viability, T/C: 24.9%
[30]
  viability, T/C: 14.3%
[31]
  viability, T/C: 0.14%
[32]
  viability, T/C: 12.2%
[33]
  viability, T/C: 31.4%
[34]
  viability, T/C: 19%
[35]
  viability, T/C: 1.9%
[36]
  viability, T/C: 3.26%

## C=CCn1c(=O)c2cnc(Nc3ccc(N4CCN(C)CC4)cc3)nc2n1-c1cccc(C(C)(C)O)n1 + CN(C)c1ccc(Nc2c3ccc(NC(=O)CCN4CCCC4)cc3nc3cc(NC(=O)CCN4CCCC4)ccc23)cc1
Second compound 0.0316 µM
  IC50: 196 nM
Second compound 0.1 µM
  IC50: 174 nM
Second compound 0.316 µM
  IC50: 155 nM
Second compound 1 µM
  IC50: 102 nM
Second compound 3.16 µM
  IC50: 121 nM
Second compound 10 µM
  IC50: 130 nM
[1]
  viability, T/C: 93.8%
[2]
  viability, T/C: 72.7%
[3]
  viability, T/C: 32.3%
[4]
  viability, T/C: 19.8%
[5]
  viability, T/C: 11.4%
[6]
  viability, T/C: 7.42%
[7]
  viability, T/C: 92.8%
[8]
  viability, T/C: 69.2%
[9]
  viability, T/C: 28.1%
[10]
  viability, T/C: 20.1%
[11]
  viability, T/C: 9.53%
[12]
  viability, T/C: 9.35%
[13]
  viability, T/C: 95.8%
[14]
  viability, T/C: 62.1%
[15]
  viability, T/C: 30%
[16]
  viability, T/C: 16.4%
[17]
  viability, T/C: 8.18%
[18]
  viability, T/C: 6.73%
[19]
  viability, T/C: 78%
[20]
  viability, T/C: 50.4%
[21]
  viability, T/C: 28.5%
[22]
  viability, T/C: 16.4%
[23]
  viability, T/C: 9.65%
[24]
  viability, T/C: 7.97%
[25]
  viability, T/C: 87.7%
[26]
  viability, T/C: 54.1%
[27]
  viability, T/C: 29.4%
[28]
  viability, T/C: 17.9%
[29]
  viability, T/C: 7.8%
[30]
  viability, T/C: 7.28%
[31]
  viability, T/C: 89.1%
[32]
  viability, T/C: 56.6%
[33]
  viability, T/C: 28%
[34]
  viability, T/C: 17.1%
[35]
  viability, T/C: 9.36%
[36]
  viability, T/C: 8.81%

## CC(C)(O)C1CCC(Nc2ccc3ncc(-c4cccc(C(F)(F)F)c4)n3n2)CC1 (stereo not given) + CN(C)c1ccc(Nc2c3ccc(NC(=O)CCN4CCCC4)cc3nc3cc(NC(=O)CCN4CCCC4)ccc23)cc1
Second compound 0.0316 µM
  IC50: > 10000 nM
Second compound 0.1 µM
  IC50: > 10000 nM
Second compound 0.316 µM
  IC50: 1760 nM
Second compound 1 µM
  IC50: 1550 nM
Second compound 3.16 µM
  IC50: 1250 nM
Second compound 10 µM
  IC50: 789 nM
[1]
  viability, T/C: 98.7%
[2]
  viability, T/C: 84.6%
[3]
  viability, T/C: 75%
[4]
  viability, T/C: 61.5%
[5]
  viability, T/C: 53.6%
[6]
  viability, T/C: 54.2%
[7]
  viability, T/C: 102%
[8]
  viability, T/C: 92.8%
[9]
  viability, T/C: 77.8%
[10]
  viability, T/C: 58%
[11]
  viability, T/C: 49.1%
[12]
  viability, T/C: 54.3%
[13]
  viability, T/C: 86.4%
[14]
  viability, T/C: 89.2%
[15]
  viability, T/C: 76.5%
[16]
  viability, T/C: 52.8%
[17]
  viability, T/C: 44.7%
[18]
  viability, T/C: 50%
[19]
  viability, T/C: 89.6%
[20]
  viability, T/C: 82%
[21]
  viability, T/C: 78.2%
[22]
  viability, T/C: 57.3%
[23]
  viability, T/C: 35.9%
[24]
  viability, T/C: 42.2%
[25]
  viability, T/C: 81.6%
[26]
  viability, T/C: 78.6%
[27]
  viability, T/C: 74.7%
[28]
  viability, T/C: 54.1%
[29]
  viability, T/C: 33.8%
[30]
  viability, T/C: 37.6%
[31]
  viability, T/C: 78.2%
[32]
  viability, T/C: 73.1%
[33]
  viability, T/C: 66.7%
[34]
  viability, T/C: 47%
[35]
  viability, T/C: 20.9%
[36]
  viability, T/C: 18.3%

## COc1ccc([C@@H](O)c2cc(-c3ncnc4cc(N5CCOCC5)ccc34)c(F)cc2Cl)nn1 + CN(C)c1ccc(Nc2c3ccc(NC(=O)CCN4CCCC4)cc3nc3cc(NC(=O)CCN4CCCC4)ccc23)cc1
Second compound 0.0316 µM
  IC50: 1870 nM
Second compound 0.1 µM
  IC50: 1170 nM
Second compound 0.316 µM
  IC50: 1160 nM
Second compound 1 µM
  IC50: 1020 nM
Second compound 3.16 µM
  IC50: 960 nM
Second compound 10 µM
  IC50: 844 nM
[1]
  viability, T/C: 103%
[2]
  viability, T/C: 86%
[3]
  viability, T/C: 73.1%
[4]
  viability, T/C: 63%
[5]
  viability, T/C: 38.2%
[6]
  viability, T/C: 32.1%
[7]
  viability, T/C: 89.1%
[8]
  viability, T/C: 92.2%
[9]
  viability, T/C: 80.6%
[10]
  viability, T/C: 52.4%
[11]
  viability, T/C: 34.3%
[12]
  viability, T/C: 28.8%
[13]
  viability, T/C: 88.1%
[14]
  viability, T/C: 87.4%
[15]
  viability, T/C: 71.5%
[16]
  viability, T/C: 53.7%
[17]
  viability, T/C: 34.3%
[18]
  viability, T/C: 29.1%
[19]
  viability, T/C: 91.5%
[20]
  viability, T/C: 82.8%
[21]
  viability, T/C: 77.2%
[22]
  viability, T/C: 50.3%
[23]
  viability, T/C: 31.8%
[24]
  viability, T/C: 29.2%
[25]
  viability, T/C: 82.6%
[26]
  viability, T/C: 80%
[27]
  viability, T/C: 75.3%
[28]
  viability, T/C: 46.8%
[29]
  viability, T/C: 33.7%
[30]
  viability, T/C: 22.9%
[31]
  viability, T/C: 79.9%
[32]
  viability, T/C: 78.8%
[33]
  viability, T/C: 73.1%
[34]
  viability, T/C: 44.2%
[35]
  viability, T/C: 31.4%
[36]
  viability, T/C: 20.7%
